Reference: patent US20050009775A1 (priority 2001, published 2005)

Tested on: HCV replicon in the 5-15 subline of Huh-7 cells
Experiment: Replicon ELISA (HCV replicon assay)
Format: cell-based, hepatitis C virus (HCV 1b)
Details: Hepatitis C virus; Huh-7 5-15 cells, HCV 1b replicon, 72 hours, NS4a ELISA
Excerpt: The 5-15 subline of Huh-7 cells (Lohmann, V., Korner, F., Koch, J-O., Herian, U., Theilmann, L. & Bartenschlager, R., 1999, Science, 2, pp 110-113) were used for these assays. These are human hepatocellular carcinoma cells stably transfected with an HCV replicon comprising the majority of the HCV 1b genome with the addition of a selectable marker gene, but lacking the genes encoding for all structural proteins and non-structural protein (NS) 2. The replicon RNA is self-replicating and fully functional viral proteins are translated from it. A quantifiable and specific reduction of expressed protein in the presence of a drug can be used as a measure of replicon inhibition.
Stock solutions of compound samples were formulated to 40 mM in DMSO. […]
ELISA step: Growth medium was removed from the plate and the cell monolayers were washed gently once with phosphate buffered saline (PBS) prior to fixing with a 1:1 mix of acetone:methanol for 5 minutes. […] The reaction was stopped by the addition of 25 μl per well of 2M sulphuric acid and the plates were read spectrophotometrically at 490 nm. […]
The absorbance values from all compound-free wells that had received both primary and secondary antibodies were averaged to obtain a positive control value. The mean absorbance value from the compound-free wells that had not received the primary antibody was used to provide the negative (background) control value. […]

| Compound | IC50 [µM] |
| --- | --- |
| COC(=O)[C@H](C)NP(=O)(OC[C@@H]1C[C@@H](O)[C@H](n2ccc(N)nc2=O)O1)Oc1ccccc1 (some centres unmarked) [Example 2] | < 200 |
| C[C@H](NP(=O)(OC[C@@H]1C[C@@H](O)[C@H](n2ccc(N)nc2=O)O1)Oc1ccccc1)C(=O)OCc1ccccc1 (some centres unmarked) [Example 3] | < 200 |
